Results published in patent US20210045385A1, “PYRIDAZINONE-SUBSTITUTED KETOXIMES AS HERBICIDES” (FMC Corporation, priority 2018, published 2021).

Key:
Assay type in all cases: in vivo
[1] = test system: foxtail, green (green foxtail, Setaria viridis); test: Test A preemergence, visual plant response rating; details: approx. 10 days
Procedure, shortened: (§1)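 Greenhouse evaluation, approx. 10 days post-spray. Soil: loam + sand. Postemergence stage: 1–2 leaves, height 2–10 cm. Vehicle: non-phytotoxic solvent blend with surfactant. Score: visual injury on a 0 (no effect) to 100 (complete control) scale.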

[2] = test system: pigweed (Amaranthus retroflexus); test: Test A preemergence, visual plant response rating; details: approx. 10 days
Procedure, shortened: as §1

[3] = test system: barnyardgrass (Echinochloa crus-galli); test: Test A preemergence, visual plant response rating; details: approx. 10 days
Procedure, shortened: as §1

kochia (Kochia scoparia) [4] = test: Test A preemergence, visual plant response rating; details: approx. 10 days
Procedure, shortened: as §1

[5] = test system: Italian ryegrass (Lolium multiflorum); test: Test A preemergence, visual plant response rating; details: approx. 10 days
Procedure, shortened: as §1

[6] = test system: ragweed (common ragweed, Ambrosia elatior); test: Test A preemergence, visual plant response rating; details: approx. 10 days
Procedure, shortened: as §1

[7] = test system: sedge, umbrella (small-flower umbrella sedge, Cyperus difformis); test: Test B flooded paddy test, visual plant response rating; details: 250 g ai/ha, Flood, applied to paddy water, 2-leaf stage, evaluated after 13 to 15 days
Procedure, shortened: (§2)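 Rice, umbrella sedge, ducksalad and barnyardgrass grown to 2-leaf stage; pots flooded 3 cm above soil and compound applied directly to paddy water, depth maintained.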

[8] = test system: barnyardgrass (Echinochloa crus-galli); test: as above; details: 250 g ai/ha, Flood, applied to paddy water, 2-leaf stage, evaluated after 13 to 15 days
Procedure, shortened: as §2

rice (Oryza sativa) = test: as above; details: 250 g ai/ha, Flood, applied to paddy water, 2-leaf stage, evaluated after 13 to 15 days
Procedure, shortened: as §2

[9] = test system: ducksalad (Heteranhera limosa); test: as above; details: 250 g ai/ha, Flood, applied to paddy water, 2-leaf stage, evaluated after 13 to 15 days
Procedure, shortened: as §2

[10] = test system: foxtail, green (green foxtail, Setaria viridis); test: Test A postemergence, visual plant response rating; details: for Foxtail, Green plant response rating (0 to 100 scale): 500 g ai/ha, postemergence, 0 is no effect, 100 is complete control; for Foxtail, Green plant response rating: Postemergence, 125 g ai/ha, 0 to 100 scale (0 no effect, 100 complete control)
Procedure, shortened: as §1

[11] = test system: pigweed (Amaranthus retroflexus); test: Test A postemergence, visual plant response rating; details: for Pigweed plant response rating (0 to 100 scale): 500 g ai/ha, postemergence, 0 is no effect, 100 is complete control; for Pigweed plant response rating: Postemergence, 125 g ai/ha, 0 to 100 scale (0 no effect, 100 complete control)
Procedure, shortened: as §1

[12] = test system: blackgrass (Alopecurus myosuroides); test: Test A postemergence, visual plant response rating; details: for Blackgrass plant response rating (0 to 100 scale): 500 g ai/ha, postemergence, 0 is no effect, 100 is complete control; for Blackgrass plant response rating: Postemergence, 125 g ai/ha, 0 to 100 scale (0 no effect, 100 complete control)
Procedure, shortened: as §1

[13] = test system: barnyardgrass (Echinochloa crus-galli); test: Test A postemergence, visual plant response rating; details: for Barnyardgrass plant response rating (0 to 100 scale): 500 g ai/ha, postemergence, 0 is no effect, 100 is complete control; for Barnyardgrass plant response rating: Postemergence, 125 g ai/ha, 0 to 100 scale (0 no effect, 100 complete control)
Procedure, shortened: as §1

kochia (Kochia scoparia) [14] = test: Test A postemergence, visual plant response rating; details: for Kochia plant response rating (0 to 100 scale): 500 g ai/ha, postemergence, 0 is no effect, 100 is complete control; for Kochia plant response rating: Postemergence, 125 g ai/ha, 0 to 100 scale (0 no effect, 100 complete control)
Procedure, shortened: as §1

[15] = test system: Italian ryegrass (Lolium multiflorum); test: Test A postemergence, visual plant response rating; details: for Ryegrass, Italian plant response rating (0 to 100 scale): 500 g ai/ha, postemergence, 0 is no effect, 100 is complete control; for Ryegrass, Italian plant response rating: Postemergence, 125 g ai/ha, 0 to 100 scale (0 no effect, 100 complete control)
Procedure, shortened: as §1

[16] = test system: wheat (Triticum aestivum); test: Test A postemergence, visual plant response rating; details: for Wheat plant response rating (0 to 100 scale): 500 g ai/ha, postemergence, 0 is no effect, 100 is complete control; for Wheat plant response rating: Postemergence, 125 g ai/ha, 0 to 100 scale (0 no effect, 100 complete control)
Procedure, shortened: as §1

corn (Zea mays) = test: Test A postemergence, visual plant response rating; details: for Corn plant response rating (0 to 100 scale): 500 g ai/ha, postemergence, 0 is no effect, 100 is complete control; for Corn plant response rating: Postemergence, 125 g ai/ha, 0 to 100 scale (0 no effect, 100 complete control)
Procedure, shortened: as §1

[17] = test system: galium (catchweed bedstraw, Galium aparine); test: Test A postemergence, visual plant response rating; details: for Galium plant response rating (0 to 100 scale): 500 g ai/ha, postemergence, 0 is no effect, 100 is complete control; for Galium plant response rating: Postemergence, 125 g ai/ha, 0 to 100 scale (0 no effect, 100 complete control)
Procedure, shortened: as §1

[18] = test system: ragweed (common ragweed, Ambrosia elatior); test: Test A postemergence, visual plant response rating; details: for Ragweed plant response rating (0 to 100 scale): 500 g ai/ha, postemergence, 0 is no effect, 100 is complete control; for Ragweed plant response rating: Postemergence, 125 g ai/ha, 0 to 100 scale (0 no effect, 100 complete control)
Procedure, shortened: as §1

Compound	Foxtail, Green plant response rating (0 to 100 scale) ([1]; 125 g ai/ha Preemergence)	Foxtail, Green plant response rating (0 to 100 scale) ([1]; 500 g ai/ha Preemergence)	Pigweed plant response rating (0 to 100 scale) ([2]; 125 g ai/ha Preemergence)	Pigweed plant response rating (0 to 100 scale) ([2]; 500 g ai/ha Preemergence)	Barnyardgrass plant response rating (0 to 100 scale) ([3]; 125 g ai/ha Preemergence)	Barnyardgrass plant response rating (0 to 100 scale) ([3]; 500 g ai/ha Preemergence)	Kochia plant response rating (0 to 100 scale) (kochia (Kochia scoparia) [4]; 125 g ai/ha Preemergence)	Kochia plant response rating (0 to 100 scale) (kochia (Kochia scoparia) [4]; 500 g ai/ha Preemergence)	Ryegrass, Italian plant response rating (0 to 100 scale) ([5]; 125 g ai/ha Preemergence)	Ryegrass, Italian plant response rating (0 to 100 scale) ([5]; 500 g ai/ha Preemergence)	Ragweed plant response rating (0 to 100 scale) ([6]; 125 g ai/ha Preemergence)	Ragweed plant response rating (0 to 100 scale) ([6]; 500 g ai/ha Preemergence)	Plant response rating, Sedge, Umbrella (0 to 100 scale, 0 is no effect, 100 is complete control) [7]	Plant response rating, Barnyardgrass (0 to 100 scale, 0 is no effect, 100 is complete control) [8]	Plant response rating, Rice (0 to 100 scale, 0 is no effect, 100 is complete control) (rice (Oryza sativa))	Plant response rating, Ducksalad (0 to 100 scale, 0 is no effect, 100 is complete control) [9]	Foxtail, Green plant response rating (0 to 100 scale) [10]	Foxtail, Green plant response rating [10]	Pigweed plant response rating (0 to 100 scale) [11]	Pigweed plant response rating [11]	also measured
Cc1ccccc1/C(=N/OC(C)C)c1c(O)c(C)nn(C)c1=O [Compound 19]	0	40	0	80	50	60	0	0	0	50	50	80	0	0	0	0	50	10	80	70	Blackgrass plant response rating (0 to 100 scale) [12]: 50; Blackgrass plant response rating [12]: 10; Barnyardgrass plant response rating (0 to 100 scale) [13]: 60; Barnyardgrass plant response rating [13]: 20; Kochia plant response rating (0 to 100 scale) (kochia (Kochia scoparia) [14]): 30; Kochia plant response rating (kochia (Kochia scoparia) [14]): 10; Ryegrass, Italian plant response rating (0 to 100 scale) [15]: 30; Ryegrass, Italian plant response rating [15]: 20; Wheat plant response rating (0 to 100 scale) [16]: 0; Wheat plant response rating [16]: 0; Corn plant response rating (0 to 100 scale) (corn (Zea mays)): 0; Corn plant response rating (corn (Zea mays)): 0; Galium plant response rating (0 to 100 scale) [17]: 90; Galium plant response rating [17]: 80; Ragweed plant response rating (0 to 100 scale) [18]: 80; Ragweed plant response rating [18]: 70
CO/N=C(\c1c(O)c(C)nn(C)c1=O)c1cccc2ccccc12 [Compound 26]	70	100	100	100	40	80	50	80	70	100	90	100	0	0	0	0	80	60	90	60	Blackgrass plant response rating (0 to 100 scale) [12]: 90; Blackgrass plant response rating [12]: 80; Barnyardgrass plant response rating (0 to 100 scale) [13]: 60; Barnyardgrass plant response rating [13]: 50; Kochia plant response rating (0 to 100 scale) (kochia (Kochia scoparia) [14]): 90; Kochia plant response rating (kochia (Kochia scoparia) [14]): 80; Ryegrass, Italian plant response rating (0 to 100 scale) [15]: 70; Ryegrass, Italian plant response rating [15]: 70; Wheat plant response rating (0 to 100 scale) [16]: 10; Wheat plant response rating [16]: 0; Corn plant response rating (0 to 100 scale) (corn (Zea mays)): 30; Corn plant response rating (corn (Zea mays)): 0; Galium plant response rating (0 to 100 scale) [17]: 100; Galium plant response rating [17]: 90; Ragweed plant response rating (0 to 100 scale) [18]: 100; Ragweed plant response rating [18]: 90
